Measured values reported in patent US20080242674A1, “Medicine For Prevention or Treatment of Frequent Urination or Urinary Incontinence” (priority 2004, published 2008).
Where a name gives a salt, the structure may show the parent alone.

Assays:
anesthetized rats = assay: Intra-bladder pressure measurement in anesthetized rat; assay type: in vivo; conditions: male rats, urethane anesthesia, after midodorin hydrochloride 3 mg/kg iv, isoproterenol 10 mg/kg iv = 100%
Excerpt: Male rats were anesthetized with urethane. To each rat, tracheal and femoral vein cannulas were inserted. After midline abdominal incision, the ureter on either side was ligated and cut at the proximal end of the ligated portion. After the urethra was ligated, a cannula was inserted into the urinary bladder through the top of the bladder dome. Through a three-way connecter, warmed saline was instilled to adjust the intra-bladder pressure to about 10 cmH2O. The other end of the bladder cannula was connected to a pressure transducer, and intra-bladder pressure was measured. Three mg/kg of midodorin hydrochloride was injected through the femoral vein cannula. Ten minutes after the midodorin hydrochloride injection, tamsulosin hydrochloride (5 mg/kg, iv) or compound 1 (10 mg/kg, iv) was intravenously injected, and the decreasing effect by single administration of each drug was evaluated. Next, 15 minutes after administration, compound 1 (10 mg/kg, iv) was intravenously injected to the animal treated with tamsulosin hydrochloride (5 mg/kg, iv) to evaluate the combinational effect. At the last, 10 mg/kg of isoproterenol was intravenously injected, and the maximum decreasing effect was set as 100% .

[1] = test system: acetic acid-stimulated rats; assay: Micturition interval measurement in acetic acid-stimulated rat; assay type: in vivo; conditions: female rats, urethane anesthesia, 0.25% acetic acid instilled into the bladder, 30 minutes after administration
Excerpt: Female rats were anesthetized with urethane. After the midline abdominal was incised, and the ureter on either side was ligated and cut, the renal end was kept open. A cannula was inserted into the urinary bladder through the top of the bladder dome and connected to a three-way connecter to establish routes for the intra-bladder pressure measurement and instillation into the bladder. The other end of the bladder cannula was connected to a pressure transducer, and intra-bladder pressure was measured. Saline was continuously instilled into the bladder (3.6 mL/hr) . […] After stable micturition intervals were obtained, silodosin (0.03 mg/kg), (−)-2-[4-[2-[[(1S, 2R)-2-hydroxy-2-(4-hydroxyphenyl)-1-methylethyl]amino]ethyl]-2,5-dimethylphenoxy] acetic acid (hereinafter referred to as “compound 2”) (1 mg/kg) or both of silodosin (0.03 mg/kg) and compound 2 (1 mg/kg) were injected through a femoral venous cannula respectively, and time from when a micturition occurred till when the next micturition was induced (micturition interval) was measured. Mean micturition intervals for 2 times before each drug administration and for all micturition which occurred in 30 minutes after the drug administration were calculated, and the change to the mean value before administration was evaluated. […]

CCOC(=O)COc1cc(C)c(CCN[C@@H](C)[C@H](O)c2ccc(O)cc2)cc1C [compound 1, ethyl (−)-2-[4-[2-[[(1S, 2R) -2-hydroxy-2-(4-hydroxyphenyl)1-methylethyl]amino]ethyl]-2,5-dimethyl-phenoxy]acetate]
effect decreasing the intra-bladder pressure (percentage of the maximum decreasing effect by isoproterenol) (anesthetized rats; compound 1 10 mg/kg iv alone): 37%

Cc1cc(OCC(=O)O)c(C)cc1CCN[C@@H](C)[C@H](O)c1ccc(O)cc1 [compound 2, (−)-2-[4-[2-[[(1S, 2R)-2-hydroxy-2-(4-hydroxyphenyl)-1-methylethyl]amino]ethyl]-2,5-dimethylphenoxy] acetic acid]
change in the micturition interval (percentage of the mean value before administration) ([1]; compound 2 1 mg/kg iv alone): 116.3%

C[C@H](Cc1cc2c(c(C(N)=O)c1)N(CCCO)CC2)NCCOc1ccccc1OCC(F)(F)F [silodosin]
change in the micturition interval (percentage of the mean value before administration) ([1]; silodosin 0.03 mg/kg iv alone): 115.2%

CCOc1ccccc1OCCN[C@H](C)Cc1ccc(OC)c(S(N)(=O)=O)c1 [tamsulosin hydrochloride]
effect decreasing the intra-bladder pressure (percentage of the maximum decreasing effect by isoproterenol) (anesthetized rats; tamsulosin hydrochloride 5 mg/kg iv alone): 26%
